Laboratory results from patent publication US8952024B2, “Herbicidal pyrimidone derivatives” (E I du Pont de Nemours and Company, priority 2009, dated 2015).

Key:
Assay type in all cases: in vivo
[1] = tested on: Russian thistle (Salsola iberica); test: Test F combination of compound 2 with bromoxynil, postemergence; conditions: 15 days, mean of three replicates, scale 0 to 100
Experimental: Test F evaluated the effect of combining compound 2 with bromoxynil. The test species for this experiment was Russian thistle (Salsola iberica), which was prepared by sowing seeds into a blend of loam soil and sand. Test chemicals were formulated in a non-phytotoxic solvent mixture that included a surfactant and applied postemergence to plants ranging in height from 12 to 20 cm. […] Treatments consisted of Compound 2, bromoxynil, or their combination, using a spray volume of 457 L/ha. Each treatment was replicated three times. Treated plants and untreated controls were maintained in a greenhouse for 15 days, after which time all plants were visually evaluated and compared to the untreated controls. […] Colby's Equation was used to determine the herbicidal effects expected from the mixtures. Colby's Equation (Colby, S.

[2] = tested on: buckwheat (wild buckwheat, Polygonum convolvulus); test: Test C plant response; conditions: Preemergence, scale 0 to 100
wild oat (Avena fatua) = test: Test C plant response; conditions: Preemergence, scale 0 to 100
[3] = tested on: wild radish (Raphanus raphanistrum); test: Test C plant response; conditions: Preemergence, scale 0 to 100
[4] = tested on: winter wheat (Triticum aestivum); test: Test C plant response; conditions: Preemergence, scale 0 to 100
[5] = tested on: sprangletop (bearded (i.e. Brdd.) sprangletop, Leptochloa fascicularis); test: Test E flooded paddy rice and weeds; conditions: applied to paddy water, 21 days, scale 0 to 100
Source text: (§1) Three plastic pots (ca. 16-cm diameter) for each application were partially filled with sterilized Tama silt loam soil comprising a 35:50:15 ratio of sand, silt and clay and 2.6% organic matter. Separate plantings for each of the three pots were as follows. Seeds from the U.S. of ducksalad (Heteranthera limosa), sedge (smallflower umbrella sedge, Cyperus difformis), ricefield bulrush (Scirpus mucronatus) and redstem (purple redstem, Ammannia coccinea), were planted into one 16-cm pot for each rate. Seeds from the U.S. of flatsedge (rice flatsedge, Cyperus iria), sprangletop (bearded (i.e. Brdd.) sprangletop, Leptochloa fascicularis), one stand of 9 or 10 water seeded rice seedlings (Oryza sativa cv. ‘Japonica—M202’), and two stands of 3 or 4 transplanted rice seedlings (Oryza sativa cv. ‘Japonica—M202’) were planted into one 16-cm pot for each rate. Seeds from the U.S. of barnyardgrass (Echinochloa crus-galli), late watergrass (Echinochloa oryzicola), early watergrass (Echinochloa oryzoides) and junglerice (Echinochloa colona) were planted into one 16-cm pot for each rate. Plantings were sequential so that crop and weed species were at the 2.0 to 2.5-leaf stage at time of treatment.
(§2) Potted plants were grown in a greenhouse with day/night temperature settings of 30/27° C., and supplemental balanced lighting was provided to maintain a 16-hour photoperiod. Test pots were maintained in the greenhouse until test completion.
(§3) At time of treatment, test pots were flooded to 3 cm above the soil surface, treated by application of test compounds directly to the paddy water, and then maintained at that water depth for the duration of the test. Effects of treatments on rice and weeds were visually evaluated by comparison to untreated controls after 21 days. Plant response ratings, summarized in Table E, are based on a scale of 0 to 100 where 0 is no effect and 100 is complete control. A dash (-) response means no test result.

[6] = tested on: water seeded rice seedlings (Oryza sativa cv. ‘Japonica—M202’); test: Test E flooded paddy rice and weeds; conditions: applied to paddy water, 21 days, scale 0 to 100
Source text: as §1, §2, §3

[7] = tested on: transplanted rice seedlings (Oryza sativa cv. ‘Japonica—M202’); test: Test E flooded paddy rice and weeds; conditions: applied to paddy water, 21 days, scale 0 to 100
Source text: as §1, §2, §3

[8] = tested on: redstem (purple redstem, Ammannia coccinea); test: Test E flooded paddy rice and weeds; conditions: applied to paddy water, 21 days, scale 0 to 100
Source text: as §1, §2, §3

[9] = tested on: junglerice (Echinochloa colona); test: Test E flooded paddy rice and weeds; conditions: applied to paddy water, 21 days, scale 0 to 100
Source text: as §1, §2, §3

[10] = tested on: late watergrass (Echinochloa oryzicola); test: Test E flooded paddy rice and weeds; conditions: applied to paddy water, 21 days, scale 0 to 100
Source text: as §1, §2, §3

[11] = tested on: ricefield bulrush (Scirpus mucronatus); test: Test E flooded paddy rice and weeds; conditions: applied to paddy water, 21 days, scale 0 to 100
Source text: as §1, §2, §3

`O=C1CCCC(O)=C1C(=O)c1cnc(-c2ccccc2)n(-c2ccccc2)c1=O` [Compound 2, 5-[(2-hydroxy-6-oxo-1-cyclohexen-1-yl)carbonyl]-2,3-diphenyl-4(3H)-pyrimidinone] was tested, and the “Russian Thistle Obsd. (observed effect)” value ([1]; Cmpd 2 62 g a.i./ha alone) was 42, the “Russian Thistle Obsd. (observed effect)” value ([1]; Cmpd 2 125 g a.i./ha alone) was 52 and the “Plant response rating: Buckwheat, Wild” value ([2]; 62 g ai/ha) was 0. The “Plant response rating: Buckwheat, Wild” value ([2]; 125 g ai/ha) was 0, the “Plant response rating: Buckwheat, Wild” value ([2]; 16 g ai/ha) was 0 and the “Plant response rating: Buckwheat, Wild” value ([2]; 31 g ai/ha) was 0. The “Plant response rating: Oat, Wild” value (wild oat (Avena fatua); 62 g ai/ha) was 0, the “Plant response rating: Oat, Wild” value (wild oat (Avena fatua); 125 g ai/ha) was 0 and the “Plant response rating: Oat, Wild” value (wild oat (Avena fatua); 16 g ai/ha) was 0. For the same molecule, the “Plant response rating: Oat, Wild” value (wild oat (Avena fatua); 31 g ai/ha) was 0, the “Plant response rating: Radish, Wild” value ([3]; 62 g ai/ha) was 0 and the “Plant response rating: Radish, Wild” value ([3]; 125 g ai/ha) was 0. The “Plant response rating: Radish, Wild” value ([3]; 16 g ai/ha) was 0, the “Plant response rating: Radish, Wild” value ([3]; 31 g ai/ha) was 0 and the “Plant response rating: Wheat, Winter” value ([4]; 62 g ai/ha) was 0. For the same molecule, the “Plant response rating: Wheat, Winter” value ([4]; 125 g ai/ha) was 0, the “Plant response rating: Wheat, Winter” value ([4]; 16 g ai/ha) was 0 and the “Plant response rating: Wheat, Winter” value ([4]; 31 g ai/ha) was 0.

`COc1cccc(-n2c(-c3ccccc3)ncc(C(=O)C3=C(O)CCCC3=O)c2=O)c1` [Compound 19] was tested, and the “Plant response rating, Sprangletop, Brdd., Flood” value ([5]; 64 g ai/ha) was 75, the “Plant response rating, Sprangletop, Brdd., Flood” value ([5]; 125 g ai/ha) was 95 and the “Plant response rating, Sprangletop, Brdd., Flood” value ([5]; 250 g ai/ha) was 100. For the same molecule, the “Plant response rating, Sprangletop, Brdd., Flood” value ([5]; 500 g ai/ha) was 100, the “Plant response rating, Rice, Water Seeded, Flood” value ([6]; 64 g ai/ha) was 0 and the “Plant response rating, Rice, Water Seeded, Flood” value ([6]; 125 g ai/ha) was 40. For the same molecule, the “Plant response rating, Rice, Water Seeded, Flood” value ([6]; 250 g ai/ha) was 70, the “Plant response rating, Rice, Water Seeded, Flood” value ([6]; 500 g ai/ha) was 95 and the “Plant response rating, Rice, Transplanted, Flood” value ([7]; 64 g ai/ha) was 0. For the same molecule, the “Plant response rating, Rice, Transplanted, Flood” value ([7]; 125 g ai/ha) was 35, the “Plant response rating, Rice, Transplanted, Flood” value ([7]; 250 g ai/ha) was 40 and the “Plant response rating, Rice, Transplanted, Flood” value ([7]; 500 g ai/ha) was 65. The “Plant response rating, Redstem, Flood” value ([8]; 64 g ai/ha) was 0, the “Plant response rating, Redstem, Flood” value ([8]; 125 g ai/ha) was 90 and the “Plant response rating, Redstem, Flood” value ([8]; 250 g ai/ha) was 90. The “Plant response rating, Redstem, Flood” value ([8]; 500 g ai/ha) was 85, the “Plant response rating, Junglerice, Flood” value ([9]; 64 g ai/ha) was 0 and the “Plant response rating, Junglerice, Flood” value ([9]; 125 g ai/ha) was 50. The “Plant response rating, Junglerice, Flood” value ([9]; 250 g ai/ha) was 65, the “Plant response rating, Junglerice, Flood” value ([9]; 500 g ai/ha) was 80 and the “Plant response rating, Watergrass, Late, Flood” value ([10]; 64 g ai/ha) was 0. The “Plant response rating, Watergrass, Late, Flood” value ([10]; 125 g ai/ha) was 45, the “Plant response rating, Watergrass, Late, Flood” value ([10]; 250 g ai/ha) was 60 and the “Plant response rating, Watergrass, Late, Flood” value ([10]; 500 g ai/ha) was 55. The “Plant response rating, Bulrush, Ricefield, Flood” value (shortened to “Plant response rating, Bulrush”) ([11]; 64 g ai/ha) was 50, the “Plant response rating, Bulrush” value ([11]; 125 g ai/ha) was 70 and the “Plant response rating, Bulrush” value ([11]; 250 g ai/ha) was 70. The “Plant response rating, Bulrush” value ([11]; 500 g ai/ha) was 75.
